Laboratory results reported in US12116424B2, “Compounds and compositions for modulating Listeria virulence” (priority 2021, dated 2024).
Like-named read-outs stand apart in the source and are kept apart here. Where a SMILES comes first, the peptide text is derived from it. Bridges are numbered along the chain shown (N, C = ends). [ ]: non-standard residue; d: D form.

Molecular target: L. monocytogenes AgrC (Listeria monocytogenes serovar 1/2a, UniProt Q8YAR5)
Assay: Fluorescence (agr-GFP) reporter agonism assay, ΔagrD reporter strain
Format: cell-based
Parameters: Emax: dose or concentration left out as unconfirmed
Conditions: for loss in potency: relative to native AIP
Excerpt: Construction of Listeria agr Reporter Strains. A gene block was designed and purchased from Integrated DNA Technologies to contain an EagI recognition site, the PII promoter of the agr system, the 3′ UTR of hly, super folder GFP, and a SaII recognition site. The gene block was digested with EagI and SaII, cloned into an EagI/SaII-cut pAM401 plasmid resulting in the plasmid pAM401-KW1, and then transformed into E. coli XL1-Blue competent cells. The insertion into pAM401 was confirmed using Kapa polymerase and primers DAP337 and DAP338, and additional confirmation via commercial sequencing. Purified plasmid was transformed into the conjugative E. coli S17 strain, which was used to conjugate to EGD-e and EGD-e ΔagrD to generate the agr-GFP reporter strains EGD-e:pAM401-KW1 and EGD-e ΔagrD:pAM401-KW1. Conjugation was verified using primers DAP337 and DAP338.
Fluorescence reporter assay protocol. For QS (agr) reporter assays, peptide stock solutions in DMSO (1 mM) were serially diluted in DMSO, and 2 μL of solution was added to each well in a black 96-well plate (polystyrene microtiter plate, Costar). Agonism assays utilized the ΔagrD reporter strain, with 2 μL of 100 μM AIP (final concentration 1 μM) as a positive control and 2 μL of DMSO as a negative control. Antagonism assays utilized the EGD-e reporter strain, with 2 μL of DMSO as a positive control. In both assays, wells containing only BHI media served as negative controls for normalization. An overnight culture of bacteria was diluted 1:50 in fresh BHI, then 198 μL were transferred to each well (excluding the media control wells). Plates were then incubated at 37° C. for 24 hours with shaking at 200 rpm. Fluorescence of GFP (excitation at 500 nm, emission at 540 nm) and OD600 of each well was measured using BioTek Synergy 2 plate reader. Measurements were processed by subtracting background fluorescence (BHI media), correcting by OD600, and the normalizing using the 1 μM AIP or the DMSO control for the agonism and antagonism assays, respectively. Non-linear regression curves were fitted to the data sets in GraphPad Prism 7 by using variable slope (four-parameter) dose-response analysis to obtain potency, efficacy, and statistical information about the activity of tested peptides. Each peptide was tested with three technical replicates and three biological replicates. All data derived from fluorescent reporter strains are represented with data points signifying the mean and error bars signifying the standard deviation from all replicates.
Preparation and Validation of Listeria agr Reporter Strains. In order to facilitate profiling the native AIP and its analogs for agr activity, L. monocytogenes agr GFP reporters were designed and constructed as described above (see Materials and General Methods). Briefly, a plasmid containing the agr promoter region upstream of gfp was transformed into wild-type (EGD-e) and ΔagrD L. monocytogenes strains. The wild-type reporter naturally produces its own AIP and is able to activate AgrC, which may subsequently phosphorylate AgrA for productive binding to DNA and triggering the production of GFP (FIG. 1A). The ΔagrD reporter, lacking the ability to produce its own AIP and thereby activate AgrC, is unable to trigger substantial production of GFP. However, adding exogenous AIP to the ΔagrD reporter results in an increase of fluorescence, indicating agr activity has been restored.

[1] = read-out: Max Activation Observed

Chain of L. monocytogenes AgrC (Q8YAR5 entry or part of it): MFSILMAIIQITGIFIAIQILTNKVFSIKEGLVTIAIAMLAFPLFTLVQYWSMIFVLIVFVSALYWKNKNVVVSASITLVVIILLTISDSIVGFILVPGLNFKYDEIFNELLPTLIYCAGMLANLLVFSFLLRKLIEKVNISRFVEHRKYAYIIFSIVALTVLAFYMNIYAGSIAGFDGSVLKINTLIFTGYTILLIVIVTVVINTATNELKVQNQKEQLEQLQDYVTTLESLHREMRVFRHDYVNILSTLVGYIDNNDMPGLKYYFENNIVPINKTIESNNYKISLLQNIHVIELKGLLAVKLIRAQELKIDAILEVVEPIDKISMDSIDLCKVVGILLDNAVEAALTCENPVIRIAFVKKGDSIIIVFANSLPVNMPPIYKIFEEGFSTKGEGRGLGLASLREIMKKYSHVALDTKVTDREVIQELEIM

Row | SMILES | Emax (read-out: Max Activation) | further results
1 | CSCC[C@@H]1NC(=O)[C@H](Cc2ccccc2)NC(=O)[C@@H](NC(=O)[C@H](C)N)CSC(=O)[C@H](C(C)C)NC(=O)[C@@H](Cc2ccccc2)NC1=O [AIP F5dF, A-(C-F-M-dF-V)] (H-ACFM[dF]V; thioester 2-C; N-terminus assumed) |  | loss in potency (agonism): two orders of magnitude; Emax [1]: 72.3%; agonism activity (in words) (ΔagrD reporter): maintain some agonism activity
2 | CC(C)[C@@H]1NC(=O)[C@H](Cc2ccccc2)NC(=O)[C@H](C)NC(=O)[C@H](Cc2ccccc2)NC(=O)[C@@H](NC(=O)[C@H](C)N)CSC1=O [AIP M4A, A-(C-F-A-F-V)] (H-ACFAFV; thioester 2-C; N-terminus assumed) |  | Emax [1]: 53.5%; EC50 (in words) (ΔagrD reporter): low micromolar range; agonism activity (in words) (ΔagrD reporter): decreased potency and agonism compared to the native AIP
3 | CC(C)[C@@H]1NC(=O)[C@H](Cc2ccccc2)NC(=O)[C@@H](C)NC(=O)[C@H](Cc2ccccc2)NC(=O)[C@@H](NC(=O)[C@H](C)N)CSC1=O [AIP M4dA, A-(C-F-dA-F-V)] (H-ACF[dA]FV; thioester 2-C; N-terminus assumed) |  | improved potency (agonism, relative to AIP M4A): about four-fold; Emax [1]: 82%
4 | CSCC[C@@H]1NC(=O)[C@H](Cc2ccccc2)NC(=O)[C@@H](NC(=O)[C@H](C)N)CSC(=O)[C@H](C)NC(=O)[C@H](Cc2ccccc2)NC1=O [AIP V6A, A-(C-F-M-F-A)] (H-ACFMFA; thioester 2-C; N-terminus assumed) | 69% | Emax [1]: 69%; agonism activity (in words) (ΔagrD reporter): decreased potency and agonism compared to the native AIP
5 | CSCC[C@@H]1NC(=O)[C@H](Cc2ccccc2)NC(=O)[C@@H](NC(=O)[C@H](C)N)CSC(=O)[C@@H](C(C)C)NC(=O)[C@H](Cc2ccccc2)NC1=O [AIP V6dV, A-(C-F-M-F-dV)] (H-ACFMF[dV]; thioester 2-C; N-terminus assumed) |  | Emax [1]: 72.9%
6 | CSCC[C@@H]1NC(=O)[C@H](Cc2ccccc2)NC(=O)[C@@H](NC(C)=O)CSC(=O)[C@H](C(C)C)NC(=O)[C@H](Cc2ccccc2)NC1=O [Ac-5-mer, Ac-(C-F-M-F-V)] (Ac-CFMFV; thioester 1-C) | 75.3% | 
7 | CSCC[C@@H]1NC(=O)[C@H](Cc2ccccc2)NC(=O)[C@@H](N)CSC(=O)[C@H](C(C)C)NC(=O)[C@H](Cc2ccccc2)NC1=O [Compound 5-mer, (C-F-M-F-V)] (H-CFMFV; thioester 1-C) | 110% | loss in potency (agonism): ten-fold; agonism activity (in words) (ΔagrD reporter): fully maintained its agonism activity
8 | CSCC[C@@H]1NC(=O)[C@H](Cc2ccccc2)NC(=O)[C@@H](NC(=O)[C@H](C)NC(=O)[C@@H](N)CCCCN)CSC(=O)[C@H](C(C)C)NC(=O)[C@H](Cc2ccccc2)NC1=O [Compound 7-mer, K-A-(C-F-M-F-V)] (H-KACFMFV; thioester 3-C; N-terminus assumed) | 64.6% | 
9 | CSCC[C@@H]1NC(=O)[C@H](Cc2ccccc2)NC(=O)[C@@H](NC(=O)[C@H](C)NC(=O)[C@H](CCCCN)NC(=O)[C@@H](N)CO)CSC(=O)[C@H](C(C)C)NC(=O)[C@H](Cc2ccccc2)NC1=O [Compound 8-mer, S-K-A-(C-F-M-F-V)] (H-SKACFMFV; thioester 4-C; N-terminus assumed) | 71.5% | 
10 | CSCC[C@@H]1NC(=O)[C@H](Cc2ccccc2)NC(=O)[C@@H](NC(=O)[C@H](C)NC(=O)[C@H](CCCCN)NC(=O)[C@H](CO)NC(=O)[C@@H](N)CCSC)CSC(=O)[C@H](C(C)C)NC(=O)[C@H](Cc2ccccc2)NC1=O [Compound 9-mer, M-S-K-A-(C-F-M-F-V)] (H-MSKACFMFV; thioester 5-C; N-terminus assumed) | 93.6% | 
11 | CSCC[C@@H]1NC(=O)[C@H](Cc2ccccc2)NC(=O)[C@@H](NC(=O)[C@H](C)NC(=O)[C@H](CCCCN)NC(=O)[C@H](CO)NC(=O)[C@H](CCSC)NC(=O)[C@@H](N)CO)CSC(=O)[C@H](C(C)C)NC(=O)[C@H](Cc2ccccc2)NC1=O [Compound 10-mer, S-M-S-K-A-(C-F-M-F-V)] (H-SMSKACFMFV; thioester 6-C; N-terminus assumed) | 110% | 
12 | CSCC[C@@H]1NC(=O)[C@H](Cc2ccccc2)NC(=O)[C@@H](NC(=O)[C@H](C)NC(=O)[C@H](CCCCN)NC(=O)[C@H](CO)NC(=O)[C@H](CCSC)NC(=O)[C@H](CO)NC(=O)[C@@H](N)CO)CSC(=O)[C@H](C(C)C)NC(=O)[C@H](Cc2ccccc2)NC1=O [Compound 11-mer, S-S-M-S-K-A-(C-F-M-F-V)] (H-SSMSKACFMFV; thioester 7-C; N-terminus assumed) | 111% | 
13 | CSCC[C@H](NC(=O)[C@H](CO)NC(=O)[C@H](CO)NC(=O)[C@@H](N)CC(=O)O)C(=O)N[C@@H](CO)C(=O)N[C@@H](CCCCN)C(=O)N[C@@H](C)C(=O)N[C@H]1CSC(=O)[C@H](C(C)C)NC(=O)[C@H](Cc2ccccc2)NC(=O)[C@H](CCSC)NC(=O)[C@H](Cc2ccccc2)NC1=O [Compound 12-mer, D-S-S-M-S-K-A-(C-F-M-F-V)] (H-DSSMSKACFMFV; thioester 8-C; N-terminus assumed) | 116% | 
14 | CSCC[C@H](NC(=O)[C@H](CO)NC(=O)[C@H](CO)NC(=O)[C@H](CC(=O)O)NC(=O)[C@H](C)N)C(=O)N[C@@H](CO)C(=O)N[C@@H](CCCCN)C(=O)N[C@@H](C)C(=O)N[C@H]1CSC(=O)[C@H](C(C)C)NC(=O)[C@H](Cc2ccccc2)NC(=O)[C@H](CCSC)NC(=O)[C@H](Cc2ccccc2)NC1=O [Compound 13-mer, A-D-S-S-M-S-K-A-(C-F-M-F-V)] (H-ADSSMSKACFMFV; thioester 9-C; N-terminus assumed) | 108% | 
15 | CSCC[C@H](NC(=O)[C@H](CO)NC(=O)[C@H](CO)NC(=O)[C@H](CC(=O)O)NC(=O)[C@H](C)NC(=O)[C@@H](N)C(C)C)C(=O)N[C@@H](CO)C(=O)N[C@@H](CCCCN)C(=O)N[C@@H](C)C(=O)N[C@H]1CSC(=O)[C@H](C(C)C)NC(=O)[C@H](Cc2ccccc2)NC(=O)[C@H](CCSC)NC(=O)[C@H](Cc2ccccc2)NC1=O [Compound 14-mcr, V-A-D-S-S-M-S-K-A-(C-F-M-F-V)] (H-VADSSMSKACFMFV; thioester 10-C; N-terminus assumed) | 105% | 
16 | CSCC[C@H](NC(=O)[C@H](CO)NC(=O)[C@H](CO)NC(=O)[C@H](CC(=O)O)NC(=O)[C@H](C)NC(=O)[C@@H](NC(=O)[C@@H](N)CCCCN)C(C)C)C(=O)N[C@@H](CO)C(=O)N[C@@H](CCCCN)C(=O)N[C@@H](C)C(=O)N[C@H]1CSC(=O)[C@H](C(C)C)NC(=O)[C@H](Cc2ccccc2)NC(=O)[C@H](CCSC)NC(=O)[C@H](Cc2ccccc2)NC1=O [Compound 15-mer, K-V-A-D-S-S-M-S-K-A-(C-F-M-F-V)] (H-KVADSSMSKACFMFV; thioester 11-C; N-terminus assumed) | 122% | 
17 | CC(=O)N[C@H]1CSC(=O)[C@H](C(C)C)NC(=O)[C@H](Cc2ccccc2)NC(=O)CNC(=O)[C@H](C(C)C)NC1=O [L. grandensis tr AIP, Ac-(C-V-G-F-V), reference compound] (Ac-CVGFV; thioester 1-C) | 10.1% | 
18 | CSCC[C@@H]1NC(=O)[C@H](CO)NC(=O)[C@@H](NC(=O)[C@H](C)N)CSC(=O)[C@H](C)NC(=O)[C@H](Cc2ccccc2)NC1=O [L. grayi AIP, A-(C-S-M-F-A), reference compound] (H-ACSMFA; thioester 2-C; N-terminus assumed) | 10.7% | 
19 | CC(C)C[C@@H]1NC(=O)CNC(=O)[C@H](C(C)C)NC(=O)[C@@H](NC(=O)[C@@H](N)CO)CSC(=O)[C@H](CO)NC1=O [L. kieliensis AIP, S-(C-V-G-L-S), reference compound] (H-SCVGLS; thioester 2-C; N-terminus assumed) | 10.4% | 
20 | CC[C@H](C)[C@@H]1NC(=O)[C@H](CC(C)C)NC(=O)[C@H](Cc2ccccc2)NC(=O)[C@@H](NC(=O)[C@@H](N)CO)CSC(=O)[C@H](Cc2ccccc2)NC1=O [L. newyorkensis AIP, S-(C-F-L-I-F), reference compound] (H-SCFLIF; thioester 2-C; N-terminus assumed) | 23.6% | agonism or antagonism activity compared to vehicle (FIG. 1B) (10 μM, wild-type reporter or ΔagrD reporter): minimal efficacy
